Data reported in patent US10011595B2 (Merck Sharp & Dohme Corp., priority 2014, dated 2018).

Molecular target: human orexin-2 receptor (Homo sapiens (Human), UniProt O43614)
Experiment: FLIPR Ca2+ Flux Assay, orexin-2 receptor
Type: cell-based
Conditions: CHO cells expressing the human orexin-2 receptor; agonist 70 pM Ala-6,12 orexin-A; read-out: hOX2R FLIPR IC50
Procedure: In a typical experiment the OX1 and OX2 receptor antagonistic activity of the compounds of the present invention was determined in accordance with the following experimental method. For intracellular calcium measurements, Chinese hamster ovary (CHO) cells expressing the rat orexin-1 receptor or the human orexin-2 receptor, are grown in Iscove's modified DMEM containing 2 mM L-glutamine, […], 1% hypoxanthine-thymidine supplement, 100 U/ml penicillin, 100 μg/ml streptomycin and 10% heat-inactivated fetal calf serum (FCS). The cells are seeded at 20,000 cells/well into Becton-Dickinson black 384-well clear bottom sterile plates coated with poly-D-lysine. All reagents were from GIBCO-Invitrogen Corp. The seeded plates are incubated overnight at 37° C. and 5% CO2. Ala-6,12 human orexin-A as the agonist is prepared as a 1 mM stock solution in 1% bovine serum albumin (BSA) and diluted in assay buffer (HBSS containing 20 mM HEPES, 0.1% BSA and 2.5 mM probenecid, pH7.4) for use in the assay at a final concentration of 70 pM. Test compounds are prepared as 10 mM stock solution in DMSO, then diluted in 384-well plates, first in DMSO, then assay buffer. On the day of the assay, cells are washed 3 times with 100 μl assay buffer and then incubated for 60 min (37° C., 5% CO2) in 60 μl assay buffer containing 1 μM Fluo-4AM ester, 0.02% pluronic acid, and 1% BSA. The dye loading solution is then aspirated and cells are washed 3 times with 100 μl assay buffer. 30 μl of that same buffer is left in each well. Within the Fluorescent Imaging Plate Reader (FLIPR, Molecular Devices), test compounds are added to the plate in a volume of 25 μl, incubated for 5 min and finally 25 μl of agonist is added. Fluorescence is measured for each well at 1 second intervals for 5 minutes and the height of each fluorescence peak is compared to the height of the fluorescence peak induced by 70 pM Ala-6,12 orexin-A with buffer in place of antagonist. For each antagonist, IC50 value (the concentration of compound needed to inhibit 50% of the agonist response) is determined. Alternatively, compound potency can be assessed by a radioligand binding assay (described in Bergman et. al. Bioorg. Med. Chem. Lett. 2008, 18, 1425-1430) in which the inhibition constant (Ki) is determined in membranes prepared from CHO cells expressing either the OX1 or OX2 receptor. The intrinsic orexin receptor antagonist activity of a compound which may be used in the present invention may be determined by these assays.

Chain of human orexin-2 receptor (O43614 whole entry): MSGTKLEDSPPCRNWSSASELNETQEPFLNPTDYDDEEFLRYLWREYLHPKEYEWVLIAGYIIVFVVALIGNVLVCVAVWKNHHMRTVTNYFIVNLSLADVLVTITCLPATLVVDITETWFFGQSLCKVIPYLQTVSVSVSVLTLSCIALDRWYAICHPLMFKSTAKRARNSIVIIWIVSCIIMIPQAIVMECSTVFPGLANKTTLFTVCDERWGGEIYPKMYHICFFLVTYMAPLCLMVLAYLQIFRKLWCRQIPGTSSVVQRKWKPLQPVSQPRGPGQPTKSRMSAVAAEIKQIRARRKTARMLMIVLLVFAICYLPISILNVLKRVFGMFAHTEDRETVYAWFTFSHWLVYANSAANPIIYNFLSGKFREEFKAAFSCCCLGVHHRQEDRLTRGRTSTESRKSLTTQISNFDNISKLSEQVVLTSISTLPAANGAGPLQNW

SMILES	IC50 [nM]
CCN(CCN(C)c1cccc(C(C)(C)O)n1)C(=O)c1ccccc1OCC(F)F [Example I-4, 2-(2,2-difluoroethoxy)-N-ethyl-N-(2-((6-(2-hydroxypropan-2-yl)pyridin-2-yl)(methyl)amino)ethyl)benzamide]	179
CCN(CCN(C)c1cc(C#N)ccn1)C(=O)c1cccc2[nH]c(=O)oc12 [Example F-18, N-{2-[(4-cyanopyridin-2-yl)(methyl)amino]ethyl}-N-ethyl-2-oxo-2,3-dihydro-1,3-benzoxazole-7-carboxamide]	10000
CCN(CCN(C)c1nccc(C(C)(C)O)n1)C(=O)c1ccccc1OCC(F)(F)F [Example H-20, N-ethyl-N-(2-((4-(2-hydroxypropan-2-yl)pyrimidin-2-yl)(methyl)amino)ethyl)-2-(2,2,2-trifluoroethoxy)benzamide]	32
CCN(CCN(C)c1cc(C#N)ccn1)C(=O)c1ccccc1-c1nc(C)no1 [Example F-27, N-{2-[(4-cyanopyridin-2-yl)(methyl)amino]ethyl}-N-ethyl-2-(3-methyl-1,2,4-oxadiazol-5-yl)benzamide]	24
CCOc1ncccc1C(=O)N(CC)CCN(C)c1cccc(C(C)(C)O)n1 [Example I-25, 2-ethoxy-N-ethyl-N-(2-((6-(2-hydroxypropan-2-yl)pyridin-2-yl)(methyl)amino)ethyl)nicotin-amide]	466
CCN(CCN(C)c1cccc(C#N)n1)C(=O)c1ccccc1-n1nccn1 [Example E-14, N-{2-[(6-cyanopyridin-2-yl)(methyl)amino]ethyl}-N-ethyl-2-(2H-1,2,3-triazol-2-yl)benzamide]	569
CCN(CCN(C)c1nccc(C(C)(C)O)n1)C(=O)c1ccccc1-n1nccn1 [Example H-1, N-ethyl-N-(2-((4-(2-hydroxypropan-2-yl)pyrimidin-2-yl)(methy)amino)ethyl)-2-(2H-1,2,3-triazol-2-yl)benzamide]	11
CCN(CCN(C)c1cccc(C#N)n1)C(=O)c1ccccc1-n1nccn1 [Example E-22, N-{2-[(6-cyanopyridin-2-yl)(methyl)amino]ethyl}-N-ethyl-2-(2H-1,2,3-triazol-2-yl)benzamide]	569
CCOc1ncccc1C(=O)N(CC)CCN(C)c1nc(C)cc(C)n1 [Example B-6, N-(2-((4,6-dimethylpyrimidin-2-yl)(methyl)amino)ethyl)-2-ethoxy-N-ethylnicotinamide]	68.1
CCN(CCN(C)c1cc(C#N)ccn1)C(=O)c1cccnc1OCc1ccccc1 [Example F-6, 2-(benzyloxy)-N-{2-[(4-cyanopyridin-2-yl)(methyl)amino]ethyl}-N-ethylpyridine-3-carboxamide]	97.9
CCN(CCNc1nc(C)cc(C)n1)C(=O)c1ccccc1-n1nccn1 [Example A-5, N-(2-((4,6-dimethylpyrimidin-2-yl)amino)ethyl)-N-ethyl-2-(2H-1,2,3-triazol-2-yl)benzamide]	1760
CCOc1nc2cccc(C(=O)N(CC)CCN(C)c3cc(C#N)ccn3)c2[nH]1 [Example F-19, N-{2-[(4-cyanopyridin-2-yl)(methyl)amino]ethyl}-2-ethoxy-N-ethyl-1H-benzimidazole-7-carboxamide]	10000
CCN(CCN(C)c1cc(C#N)ccn1)C(=O)c1ccccc1COC [Example F-16, N-{2-[(4-cyanopyridin-2-yl)(methyl)amino]ethyl}-N-ethyl-2-(methoxymethyl)benzamide]	688
CC(C)N(CCN(C)c1cc(C#N)ccn1)C(=O)c1ccccc1-n1nccn1 [Example G-9, N-(2-((4-cyanopyridin-2-yl)(methyl)amino)ethyl)-N-isopropyl-2-(2H-1,2,3-triazol-2-yl)benzamide]	76.5
CCN(CCN(C)c1nc(C)cc(C)n1)C(=O)c1nccnc1-c1ccccn1 [Example B-33, N-{2-[(4,6-dimethylpyrimidin-2-yl)(methyl)amino]ethyl}-N-ethyl-3-pyridin-2-ylpyrazine-2-carboxamide]	23
CCN(CCN(C)c1cc(C#N)ccn1)C(=O)c1ccccc1-n1ccnn1 [Example F-28, N-{2-[(4-cyanopyridin-2-yl)(methyl)amino]ethyl}-N-ethyl-2-(1H-1,2,3-triazol-1-yl)benzamide]	461

SMILES	IC50 [nM]
CCN(CCN(C)c1nc(C)cc(C)n1)C(=O)c1ccccc1-n1nccn1 [Example A-1, N-(2-((4,6-dimethylpyrimidin-2-yl)(methyl)amino)ethyl)-N-ethyl-2-(2H-1,2,3-triazol-2-yl)benzamide]	36.5
CCN(CCN(C)c1nccc(C(C)(C)O)n1)C(=O)c1ccccc1OC(F)F [Example H-18, 2-(difluoromethoxy)-N-ethyl-N-(2-((4-(2-hydroxypropan-2-yl)pyrimidin-2-yl)(methyl)amino)ethyl) benzamide]	49.3
CCN(CCN(C)c1nccc(C(C)(C)O)n1)C(=O)c1ccccc1CC(F)(F)F [Example H-21, N-ethyl-N-(2-((4-(2-hydroxypropan-2-yl)pyrimidin-2-yl)(methyl)amino)ethyl)-2-(2,2,2-trifluoroethyl)benzamide]	18
CCN(CCN(C)c1cc(C#N)ccn1)C(=O)c1ccccc1OCC(F)(F)F [Example F-14, N-{2-[(4-cyanopyridin-2-yl)(methyl)amino]ethyl}-N-ethyl-2-(2,2,2-trifluoroethoxy)benzamide]	77.4
CCN(CCN(C)c1cccc(C(C)(C)O)n1)C(=O)c1ccccc1-n1nccn1 [Example I-1, N-ethyl-N-(2-((6-(2-hydroxypropan-2-yl)pyridin-2-yl)(methyl)amino)ethyl)-2-(2H-1,2,3-triazol-2-yl)benzamide]	12.4
CCN(CCN(C)c1cccc(C(C)(C)O)n1)C(=O)c1ncccc1-n1nccn1 [Example I-9, N-ethyl-N-(2-((6-(2-hydroxypropan-2-yl)pyridin-2-yl)(methyl)amino)ethyl)-3-(2H-1,2,3-triazol-2-yl)picolinamide]	312
CCN(CCN(C)c1nc(C)cc(C)n1)C(=O)c1ccc(OC)nc1C1CC1 [Example B-19, 2-cyclopropyl-N-{2-[(4,6-dimethylpyrimidin-2-yl)(methyl)amino]ethyl}-N-ethyl-6-methoxypyridine-3-carboxamide]	32.1
CCN(CCN(C)c1nccc(C#N)c1Cl)C(=O)c1ccccc1-n1nccn1 [Example E-8, N-{2-[(3-chloro-4-cyanopyridin-2-yl)(methyl)amino]ethyl}-N-ethyl-2-(2H-1,2,3-triazol-2-yl)benzamide]	110
CCN(CCN(C)c1nc(C)cc(C)n1)C(=O)c1ccccc1OCC(F)F [Example B-20, 2-(2,2-difluoroethoxy)-N-{2-[(4,6-dimethylpyrimidin-2-yl)(methyl)amino]ethyl}-N-ethylbenzamide]	9.2
CCN(CCN(C)c1nccc(C(C)(C)O)n1)C(=O)c1cccnc1-c1ccccc1 [Example H-30, N-ethyl-N-(2-((4-(2-hydroxypropan-2-yl)pyrimidin-2-yl)(methyl)amino)ethyl)-2-phenylnicotinamide]	53
CCN(CCN(C)c1nc(C)cc(C)n1)C(=O)c1ccccc1-n1cccn1 [Example B-14, N-(2-((4,6-dimethylpyrimidin-2-yl)(methyl)amino)ethyl)-N-ethyl-2-(1H-pyrazol-1-yl)benzamide]	13.9
CCN(CCN(C)c1nc(C)cc(C)n1)C(=O)c1ccccc1OC(F)F [Example B-8, 2-(difluoromethoxy)-N-(2-((4,6-dimethylpyrimidin-2-yl)(methyl)amino)ethyl)-N-ethylbenzamide]	18.5
CCN(CCN(C)c1cc(C#N)ccn1)C(=O)c1ccccc1-c1nnn[nH]1 [Example F-5, N-{2-[(4-cyanopyridin-2-yl)(methyl)amino]ethyl}-N-ethyl-2-(1H-tetrazol-5-yl)benzamide]	10000
CCN(CCN(C)c1cccc(C(C)(C)O)n1)C(=O)c1cccnc1OCC(F)(F)F [Example I-15, N-ethyl-N-(2-((6-(2-hydroxypropan-2-yl)pyridin-2-yl)(methyl)amino)ethyl)-2-(2,2,2-trifluoroethoxy)nicotinamide]	306
CCN(CCN(C)c1cccc(C(C)(C)O)n1)C(=O)c1cccnc1OCC(F)F [Example I-16, 2-(2,2-difluoroethoxy)-N-ethyl-N-(2-((6-(2-hydroxypropan-2-yl)pyridin-2-yl)(methyl)amino)ethyl)nicotin-amide]	234
CCN(CCN(C)c1cc(C#N)ccn1)C(=O)c1cccnc1Oc1ccccc1 [Example F-7, N-{2-[(4-cyanopyridin-2-yl)(methyl)amino]ethyl}-N-ethyl-2-phenoxypyridine-3-carboxamide]	10000
